Structures are written as SMILES. Like-named read-outs stand apart in the source and are kept apart here.

Data set [1] deals with A549 cells. The data set can be described thus: Hoechst 33258/propidium iodide double staining, fluorescence microscopy. In kind it is cell-based, human. The conditions noted are these: for nuclear staining, Hoechst 33258 and PI uptake: 20 μM for 12 h; for PI staining on co-incubation with necrostatin-1: necrostatin-1 60 μM for 12 h. The protocol:
Intracellular ROS production and mitochondrial membrane depletion contribute to necroptosis. Cells undergoing necroptosis display necrosis-like morphological features such as loss of cell membrane integrity, increase in organelle and cell volume (oncosis), and intact nuclear membrane. To further test whether 1- and 2-treatment can trigger necroptosis, Hoechst 33258/propidium iodide (PI) double staining was carried out to determine nuclear membrane morphology and integrity. Hoechst 33258 is a DNA minor groove binder that is routinely used to visualize the nucleus without the need for cell permeabilization. When used without cell permeabilization agents, PI stains the nuclei of necrotic cells. Early-stage apoptotic and normal cells maintain cell membrane integrity and thus are not stained by PI. A549 cells were treated with 1 and 2 (20 μM for 12 h), incubated with Hoechst 33258 and PI, and imaged using a fluorescence microscope.
Fluorescence Microscopy. A549 cells (1.5×10^6 cells/well) were incubated with and without 1 and 2 (20 μM) for 12 h. The media were then removed, and the cells were washed with additional media (2 mL×2). After incubation of the cells with more media containing Hoechst 33258 (7.5 μM) and PI (5 μM), the nuclear regions were imaged using a fluorescence microscope. Fluorescence imaging experiments were performed using a Zeiss Axiovert 200M inverted epifluorscence microscope with a Hamamatsu EM-CCD digital camera C9100 and a MS200 XY Piezo Z stage (Applied Scientific Instruments, Inc.). An X-Cite 120 metal halide lamp (EXFO) was used as the light source. Zeiss standard filter set 49 was employed for imaging the nuclear region. The microscope was operated with Volocity software (version 6.01, Improvision). The exposure time for acquisition of fluorescence images was kept constant for each series of images at each channel.

A short description of data set [2]: Stability in whole human blood (octanol extraction, GFAAS). Conditions: 500 μM, fresh human blood, 37° C. In kind it is in vitro ADME. The protocol:
The stability of biologically active compounds in human blood is vitally important for their potential application in clinical settings. The stability of 1 in whole human blood using a recently developed protocol was investigated. The method exploits the ability of octanol to extract hydrophobic metal complexes such as 1. The rhenium complex 1 (500 μM) was incubated with fresh human blood at 37° C., and aliquots were extracted into octanol at various time points. The amount of 1 in the octanol extracts (corresponding to unreacted 1) was measured by graphite furnace atomic absorption spectroscopy (GFAAS).

In data set [3] the test system is cisplatin-resistant ovarian carcinoma cells (A2780CP70). The data set can be described thus: MTT cytotoxicity assay, A2780CP70 cells. It counts as cell-based, human.
Setting [4] is: Table 1, 72 h exposure, ± standard deviation, read-out: IC50 A2780CP70 ovarian carcinoma.
[5] abbreviates: Table A, average of three independent determinations, read-out: IC50 A280CP70 (ovarian).

`C[O][Re](=[O])([Cl])[Cl].c1ccc(-c2ccnc3c2ccc2c(-c4ccccc4)ccnc23)cc1` [Compound 1, [ReO(OMe)(4,7-diphenyl-1,10-phenanthroline)-Cl2]]: in data set [1], the “nuclear staining, Hoechst 33258 and PI uptake” value is listed as “pink nuclei”; the “PI staining on co-incubation with necrostatin-1” value is reported as “unstained by PI”. In addition, the “half-life in human blood” value in data set [2] stood at 29.1 min. In addition, the IC50 (usually the point on the concentration scale where inhibition reaches its midpoint) in data set [3] (setting [4]) was determined as 42 ± 15 nM. In addition, the 50% inhibitory concentration (IC50) in data set [3] (setting [5]) is 42 ± 15 nM.

With `C[O][Re-2]1(=[O])([Cl])([Cl])[n+]2cc(C)c(C)c3ccc4c(C)c(C)c[n+]1c4c32` [Compound 2, [ReO(OMe)(3,4,7,8-tetramethyl-1,10-phenanthroline)Cl2]], in data set [1], the “nuclear staining, Hoechst 33258 and PI uptake” value is recorded as “pink nuclei”; the “PI staining on co-incubation with necrostatin-1” value is given as “unstained by PI”. Also, the half-inhibitory concentration (IC50) in data set [3] (setting [4]) was 56 ± 2 nM. Further, in data set [3] (setting [5]), the IC50 was found to be 56 ± 2 nM.

The record behind these values is US20150299233A1, “COMPOSITIONS AND METHODS COMPRISING RHENIUM FOR THE TREATMENT OF CANCERS” (Massachusetts Institute of Technology, priority 2014, published 2015).
